From article PMC4167698, “Fatty Acid Esters of Phloridzin Induce Apoptosis of Human Liver Cancer Cells through Altered Gene Expression” (PLoS ONE, 2014)

Columns and labels:
[1] = tested on: normal human hepatocytes (HP-F); assay: MTS cell viability assay, normal human hepatocytes; format: cell-based; settings: Hepatocyte, 24 h
Procedure: (§1) Cell viability was determined by using the MTS assay. In brief, HepG2 cells (5×10^3 cells/100 µL/well), MDA-MB-231 (5×10^3 cells/100 µL/well), THP-1 (25×10^3/100 µL/well), normal human and rat hepatocytes (1×10^4 cells/100 µL/well) were plated in triplicate, in a 96 well sterile flat bottom tissue culture plates. […] Thereby, cells were exposed to various concentrations (0.1, 1, 10, 25, 50, 75, 100 µM) of each treatment. Controls consist of cells with media containing DMSO (<0.5%), test blank wells contained the test compound in media with no cells and blank wells contained media with no cells. After additional 3, 6, 12, 18 or 24 h, 20 µL of the MTS reagent in combination with the electron coupling agent, phenazine methosulfate were added to the wells and cells were incubated in a humidified incubator for 3 h. Absorbance at 490 nm (OD490) was measured by using a Flurostar Optima microplate reader (BMG Labtech, Cary, NC, USA) to obtain the number of viable cells relative to the control population. Percentage of viability of the test compound treated cells are expressed as percentage compared to control (<0.5% DMSO). […] The selective index (SI) of the fatty acid esters of phloridzin is defined as the ratio of cytotoxicity (EC50 values) on normal HP-F cells to solid cancer HepG2, MDA-MB-231 cells (SI = EC50 on HP-F cells/EC50 on solid cancer cells). Samples with SI values greater than three were considered to have high selectivity towards cancer cells.

[2] = tested on: THP-1 cells; assay: MTS cell proliferation assay, THP-1; format: cell-based, human; settings: Homo sapiens, MTS
Procedure: as §1

[3] = tested on: MDA-MB-231 cells; assay: MTS cell proliferation assay, MDA-MB-231; format: cell-based, human; settings: Homo sapiens, MTS
Procedure: as §1

[4] = tested on: HepG2 cells; assay: MTS cell proliferation assay, HepG2; format: cell-based, human; settings: Homo sapiens, MTS
Procedure: as §1

Structure (SMILES) | EC50 [1] | EC50 ([2]; THP-1, 3 h) | EC50 ([2]; THP-1, 6 h) | EC50 ([2]; THP-1, 12 h) | EC50 ([2]; THP-1, 18 h) | EC50 ([2]; THP-1, 24 h) | EC50 ([3]; MDA-MB-231, 3 h) | EC50 ([3]; MDA-MB-231, 6 h) | EC50 ([3]; MDA-MB-231, 12 h) | EC50 ([3]; MDA-MB-231, 18 h) | EC50 ([3]; MDA-MB-231, 24 h) | EC50 ([4]; HepG2, 3 h) | EC50 ([4]; HepG2, 6 h) | EC50 ([4]; HepG2, 12 h) | EC50 ([4]; HepG2, 18 h) | EC50 ([4]; HepG2, 24 h)
CC/C=C\C/C=C\C/C=C\C/C=C\C/C=C\CCCC(=O)O [EPA, eicosapentaenoic acid] | > 100 µM | > 100 µM | > 100 µM | > 100 µM | > 100 µM | > 100 µM | > 100 µM | > 100 µM | > 100 µM | > 100 µM | > 100 µM | > 100 µM | > 100 µM | > 100 µM | > 100 µM | > 100 µM
COc1cccc2c1C(=O)c1c(O)c3c(c(O)c1C2=O)C[C@@](O)(C(C)=O)C[C@@H]3O[C@H]1C[C@H](N)[C@H](O)[C@H](C)O1 [Daunorubicin, daunorubicin] | – | 48.1 ± 2.8 µM | 35.2 ± 2.9 µM | 12.6 ± 0.8 µM | 1.4 ± 0.2 µM | 0.02 ± 0.01 µM | – | – | – | – | – | – | – | – | – | –
CCCCCCCCCCCCCCCCCC(=O)O [Stearic acid, stearic acid] | > 100 µM | > 100 µM | > 100 µM | > 100 µM | > 100 µM | > 100 µM | > 100 µM | > 100 µM | > 100 µM | > 100 µM | > 100 µM | > 100 µM | > 100 µM | > 100 µM | > 100 µM | > 100 µM
CCCCCCCC/C=C\CCCCCCCC(=O)O [Oleic acid, oleic acid] | > 100 µM | > 100 µM | > 100 µM | > 100 µM | > 100 µM | > 100 µM | > 100 µM | > 100 µM | > 100 µM | > 100 µM | > 100 µM | > 100 µM | > 100 µM | > 100 µM | > 100 µM | > 100 µM
